Our source for the IC50 values is PMC11444863 (Bioscience of Microbiota, Food and Health, 2024).

Structures are written as SMILES.

The target of the test is T1, Hyaluronidase from bovine testes (Bos taurus, UniProt Q2YDK3).
T1 sequence (Q2YDK3 36-553): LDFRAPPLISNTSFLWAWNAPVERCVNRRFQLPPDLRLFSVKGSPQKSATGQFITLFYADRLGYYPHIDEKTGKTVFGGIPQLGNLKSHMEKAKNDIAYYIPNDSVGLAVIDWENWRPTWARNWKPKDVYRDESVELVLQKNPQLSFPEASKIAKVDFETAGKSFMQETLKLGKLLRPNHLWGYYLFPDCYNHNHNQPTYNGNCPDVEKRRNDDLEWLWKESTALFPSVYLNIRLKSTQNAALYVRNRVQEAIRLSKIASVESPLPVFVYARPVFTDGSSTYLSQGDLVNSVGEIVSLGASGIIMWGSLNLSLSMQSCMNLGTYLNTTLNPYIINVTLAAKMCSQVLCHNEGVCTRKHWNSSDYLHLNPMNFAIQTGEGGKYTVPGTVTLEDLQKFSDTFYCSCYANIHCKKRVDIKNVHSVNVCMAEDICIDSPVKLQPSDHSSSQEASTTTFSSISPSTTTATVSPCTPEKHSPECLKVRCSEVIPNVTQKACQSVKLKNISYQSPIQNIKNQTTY
Put plainly: colorimetric hyaluronidase inhibition assay. In kind it is biochemical.

As to `O=C(O)CCC(=O)C(=O)O` [AKG, α-ketoglutarate], inhibition was half-maximal at 2820 ± 38 µM (IC50).
The result for `O=C(O)c1cc(=O)c2c(OCC(O)COc3cccc4oc(C(=O)O)cc(=O)c34)cccc2o1` [DSCG, disodium cromoglycate] reads 360 ± 41 µM.
